Experimental data as given in patent publication US8258311B2, “Human protein tyrosine phosphatase inhibitors and methods of use” (Aerpio Therapeutics Inc., priority 2006, dated 2012).

Assays:
HPTPβ = HPTPβ (Homo sapiens, UniProt P23467); assay: HPTPβ inhibition (IC50); type: biochemical
PTP1B = target: T1, PTP1B (Homo sapiens, UniProt P18031); assay: PTP1B inhibition (IC50); type: biochemical
T1 sequence (P18031 1-435): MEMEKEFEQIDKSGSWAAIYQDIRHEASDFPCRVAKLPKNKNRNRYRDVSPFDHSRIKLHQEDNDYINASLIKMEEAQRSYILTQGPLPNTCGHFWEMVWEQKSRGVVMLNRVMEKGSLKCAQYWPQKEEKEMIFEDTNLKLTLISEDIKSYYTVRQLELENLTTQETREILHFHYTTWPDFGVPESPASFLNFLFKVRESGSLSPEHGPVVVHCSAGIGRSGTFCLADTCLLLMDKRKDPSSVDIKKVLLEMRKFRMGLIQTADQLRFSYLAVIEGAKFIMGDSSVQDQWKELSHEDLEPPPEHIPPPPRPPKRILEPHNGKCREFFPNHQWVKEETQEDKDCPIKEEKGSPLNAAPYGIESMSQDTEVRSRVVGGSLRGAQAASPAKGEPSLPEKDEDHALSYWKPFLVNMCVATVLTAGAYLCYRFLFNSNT

Chain of HPTPβ (P23467 23-1997): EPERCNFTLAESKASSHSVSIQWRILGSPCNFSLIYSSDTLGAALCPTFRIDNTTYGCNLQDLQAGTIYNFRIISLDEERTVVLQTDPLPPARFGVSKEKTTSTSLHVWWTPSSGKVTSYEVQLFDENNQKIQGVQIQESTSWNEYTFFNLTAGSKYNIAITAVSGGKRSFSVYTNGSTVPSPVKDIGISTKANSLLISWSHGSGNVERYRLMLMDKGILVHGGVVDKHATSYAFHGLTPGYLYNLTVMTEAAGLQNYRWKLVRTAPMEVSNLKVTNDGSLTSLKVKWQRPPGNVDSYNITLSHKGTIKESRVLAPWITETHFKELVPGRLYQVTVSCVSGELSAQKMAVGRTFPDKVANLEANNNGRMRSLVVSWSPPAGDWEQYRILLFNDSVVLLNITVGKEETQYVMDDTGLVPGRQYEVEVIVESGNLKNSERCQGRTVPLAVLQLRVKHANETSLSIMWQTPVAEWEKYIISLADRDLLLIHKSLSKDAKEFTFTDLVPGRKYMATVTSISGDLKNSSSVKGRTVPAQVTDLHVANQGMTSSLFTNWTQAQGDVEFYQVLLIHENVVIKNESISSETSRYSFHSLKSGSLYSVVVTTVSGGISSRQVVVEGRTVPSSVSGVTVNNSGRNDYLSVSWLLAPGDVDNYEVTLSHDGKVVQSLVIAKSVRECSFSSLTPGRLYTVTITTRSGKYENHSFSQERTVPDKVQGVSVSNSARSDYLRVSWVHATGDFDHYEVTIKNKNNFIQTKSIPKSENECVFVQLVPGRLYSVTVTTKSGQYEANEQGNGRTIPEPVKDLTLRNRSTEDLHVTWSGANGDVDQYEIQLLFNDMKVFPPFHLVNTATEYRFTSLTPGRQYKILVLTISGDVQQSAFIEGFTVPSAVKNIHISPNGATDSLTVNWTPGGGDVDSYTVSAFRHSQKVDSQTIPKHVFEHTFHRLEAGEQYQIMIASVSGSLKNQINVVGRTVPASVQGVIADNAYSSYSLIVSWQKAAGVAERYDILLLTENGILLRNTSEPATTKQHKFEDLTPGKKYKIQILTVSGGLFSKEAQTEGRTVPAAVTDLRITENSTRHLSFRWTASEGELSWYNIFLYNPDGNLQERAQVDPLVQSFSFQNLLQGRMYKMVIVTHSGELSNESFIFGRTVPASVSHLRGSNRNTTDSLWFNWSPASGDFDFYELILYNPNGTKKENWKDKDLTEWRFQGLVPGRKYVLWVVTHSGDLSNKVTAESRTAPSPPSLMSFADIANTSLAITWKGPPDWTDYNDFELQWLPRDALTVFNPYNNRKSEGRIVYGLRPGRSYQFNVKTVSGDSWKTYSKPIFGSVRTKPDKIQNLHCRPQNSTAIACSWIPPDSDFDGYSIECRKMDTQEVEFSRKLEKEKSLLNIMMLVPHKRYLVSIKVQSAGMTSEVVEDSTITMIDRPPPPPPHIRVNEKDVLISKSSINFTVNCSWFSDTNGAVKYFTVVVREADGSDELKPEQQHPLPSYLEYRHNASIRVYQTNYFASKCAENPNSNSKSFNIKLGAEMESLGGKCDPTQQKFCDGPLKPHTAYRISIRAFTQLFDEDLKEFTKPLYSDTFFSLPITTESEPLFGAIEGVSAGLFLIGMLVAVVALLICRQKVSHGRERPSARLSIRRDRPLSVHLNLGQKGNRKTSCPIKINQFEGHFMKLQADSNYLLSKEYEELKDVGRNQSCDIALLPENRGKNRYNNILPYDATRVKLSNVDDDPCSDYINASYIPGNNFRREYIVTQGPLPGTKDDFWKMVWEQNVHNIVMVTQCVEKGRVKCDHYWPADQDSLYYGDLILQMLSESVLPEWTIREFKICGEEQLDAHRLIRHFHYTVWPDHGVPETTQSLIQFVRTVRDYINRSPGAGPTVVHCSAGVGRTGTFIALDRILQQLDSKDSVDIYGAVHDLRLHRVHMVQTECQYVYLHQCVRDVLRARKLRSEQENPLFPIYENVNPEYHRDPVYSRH

Compound | IC50 (HPTPβ) [nM] | IC50 (PTP1B) [nM]
COc1cccc(-c2csc([C@H](Cc3ccc(NS(=O)(=O)O)cc3)NC(=O)C(C)(C)C)n2)c1 [4-((S)-2-(4-(3-Methoxyphenyl)thiazol-2-yl)-2-pivalamidoethyl)phenylsulfamic acid] | 110 | 40100
(S)-4-(2-(tert-Butoxycarbonylamino)-2-(2-pivalamidothiazol-4-yl)ethyl)phenylsulfamic acid | 555 | 9120
(S)-4-(2-(tert-Butoxycarbonyl)-2-(4-(2-(2-methoxy-2-oxoyethyl amino)-2-oxoethyl)thiazole-2-yl)ethyl)phenylsulfamic acid | 132 | 50000

Results, then the compound that gave them:

IC50 (HPTPβ) [nM] | IC50 (PTP1B) [nM] | Compound
0.14 | 680 | CCOC(=O)N[C@@H](Cc1ccccc1)C(=O)N[C@@H](Cc1ccc(NS(=O)(=O)O)cc1)c1nc(CC)cs1 [4-{(S)-2-[(S)-2-(Ethoxycarbonylamino)-3-phenylpropanamido]-2-(4-ethylthiazol-2-yl)ethyl}phenylsulfamic acid]
0.2 | 70 | CCOC(=O)c1csc([C@H](Cc2ccc(NS(=O)(=O)O)cc2)NC(=O)[C@H](Cc2ccccc2)NC(=O)OC)n1 [4-{(S)-2-(4-(Ethoxycarbonyl)thiazol-2-yl)-2-[(S)-2-(methoxy-carbonylamino)-3-phenylpropanamido]ethyl}phenylsulfamic acid]
1 | 1160 | COC(=O)N[C@@H](Cc1ccccc1)C(=O)N[C@@H](Cc1ccc(NS(=O)(=O)O)cc1)c1csc(C)n1 [4-{(S)-2-[(S)-2-(Methoxycarbonylamino)-3-phenylpropanamido]-2-(2-methylthiazol-4-yl)ethyl}phenylsulfamic acid]
